From PMC7502707, “Characterization and validation of a preventative therapy for hypertrophic cardiomyopathy in a murine model of the disease” (Proceedings of the National Academy of Sciences of the …, 2020)

Key:
[1] = system: cTnI-G203S cardiac myocytes; experiment: Calcium transients in Fura-2 loaded myocytes; assay type: cell-based, mouse; conditions: in vitro 1 μM peptide
Procedure: The whole-cell configuration of the patch-clamp technique was used to measure changes in ICa-L currents ([13]), and stimulate calcium transients in intact ventricular myocytes. Detailed methods are provided in SI Appendix.
Supporting Materials and Methods
Isolation of ventricular myocytes
Myocytes were isolated from wt and cTnI-G203S mice. Animals were anesthetized with pentobarbitone sodium (240 mg/kg) via intraperitoneal injection prior to excision of the heart. Cells were isolated as previously described (1-3). Mouse hearts were excised, cannulated onto a Langendorff apparatus via the aorta, and perfused with Krebs-Henseleit Buffer (KHB) containing […]
O2/CO2 at 37°C) for 4 min at 37°C. […]
The whole-cell configuration of the patch-clamp technique was used to measure changes in ICa-L currents (4), and stimulate calcium transients in intact ventricular myocytes. […] Currents were measured in extracellular modified Tyrode’s solution containing (in mM): NaCl 140, CsCl 5.4, CaCl2 2.5, MgCl2 0.5, HEPES 5.5 and glucose 11 (pH adjusted to 7.6 with NaOH). Macroscopic currents were recorded using an Axopatch 200B voltage-clamp amplifier (Molecular Devices) with a Digidata 1440A interface and pClamp10.5 software (Molecular Devices). […] The time course of changes in Ca2+ conductance were monitored by applying a 100 ms test pulse to 10 mV once every 10 seconds. […]

[2] = system: myocytes isolated from wt and cTnI-G203S mice; experiment: MTT assay (formation of formazan) in myocytes isolated from treated mice; assay type: in vivo, mouse; conditions: myocytes from precardiomyopathic cTnI-G203S mice treated 10 μM i.p. 3×/wk/5 wk from 20 wk
Procedure: The rate of reduction of MTT (Sigma-Aldrich) to formazan by the mitochondrial electron transport chain was measured in intact mouse cardiac myocytes, as previously described ([22], [25]). Each n represents number of replicates for each treatment group from cardiac myocytes isolated from a total of six wt [AID(S)-TAT], four cTnI-G203S [AID(S)-TAT], and three (AID-TAT) mice. Detailed methods are provided in SI Appendix. […]
The rate of reduction of 3-(4,5-Dimethyl-2-thiazolyl)-2,5-diphenyl-2H-tetrazolium bromide (MTT, Sigma-Aldrich, St. Louis, Missouri) to formazan by the mitochondrial electron transport chain was measured in intact mouse cardiac myocytes as previously described (1, 9). This reaction is dependent upon the presence of reduced nicotinamide adenine dinucleotide (NADH) and reduced nicotinamide adenine dinucleotide phosphate (NADPH), and intact mitochondrial electron transport (10). Cardiac myocytes were treated with relevant drugs in 96 well plates. MTT was added to each well to a final concentration of 0.5 mg/ml and the rate of the increase in absorbance immediately measured using a spectrophotometer at 37°C (PowerWave XS, 570 nm, reference wavelength of 620 nm). The rate of the increase in absorbance in response to treatments was expressed as a percentage of the rate of the increase prior to the addition of treatments. Each n represents number of replicates for each treatment group from cardiac myocytes isolated from a total of 6 wt (AID[S]- TAT), 4 cTnI-G203S (AID[S]-TAT), and 3 (AID-TAT) mice.
Immunoblot of ICa-L protein

Sequence: QQLEEDLKGYLDWITQAE [AID-TAT]
- cellular calcium handling (calcium transients, Fura-2) [1]: no significant alteration
- increase in metabolic activity (formazan from MTT) following BayK(−) [2]: reduced this response to a level comparable to that observed in wt myocytes
